Like-named read-outs stand apart in the source and are kept apart here.
Tests used:
Staphylococcus aureus = assay: Bacteriostasis/sterilization test (plate count); type: cell-based; conditions: for inhibition rate: concentration 0.035 mM; for IC50: read-out: half inhibition concentration; for Inhibition rate (%) / inhibition at 35 µM: 0.035 mM (Table 25); for inhibition at 35 µM: read-out: Inhibition rate (%); for inhibition at 9 µM: concentration 0.009 mM, read-out: inhibition rate
[1] = mouse, in vivo, po
VERO E6 cells = assay: Cytotoxicity (CCK-8) on VERO E6 cells
Escherichia coli = assay: Bacteriostasis/sterilization test (plate count); type: cell-based; conditions: for Inhibition rate (%): 0.035 mM (Table 25); for inhibition at 35 µM: Escherichia coli, read-out: Inhibition rate (%)
[2] = system: Methicillin-resistant Staphylococcus aureus; assay: Bacteriostasis/sterilization test (plate count); type: cell-based; conditions: 0.035 mM (Table 25)
Streptococcus pneumoniae = assay: Bacteriostasis/sterilization test (plate count); type: cell-based; conditions: for Inhibition rate (%): 0.035 mM (Table 25); for inhibition at 35 µM: Streptococcus pneumoniae, read-out: Inhibition rate (%)
Klebsiella pneumoniae = assay: Bacteriostasis/sterilization test (plate count); type: cell-based; conditions: for Inhibition rate (%): 0.035 mM (Table 25); for inhibition at 35 µM: Klebsiella pneumoniae, read-out: Inhibition rate (%)
Pseudomonas aeruginosa = assay: Bacteriostasis/sterilization test (plate count); type: cell-based; conditions: for Inhibition rate (%): 0.035 mM (Table 25); for inhibition at 35 µM: Pseudomonas aeruginosa, read-out: Inhibition rate (%)
H7N9 pseudovirus = type: cell-based, Influenza pseudovirus H7N9-Fluc
H5N1 pseudovirus = type: cell-based, Influenza pseudovirus H5N1-Fluc
HIV pseudovirus = type: cell-based, HIV pseudovirus HIV18A-41
SARS-CoV-2 pseudovirus [3] = type: cell-based, SARS-CoV-2 pseudovirus B.1.526.2
[4] = system: SARS-CoV-2 pseudovirus (B.1.526.2); type: cell-based; conditions: n=3
293T cells = assay: Cellular phagocytosis of DiD-loaded lipid vesicles (nano-drugs) by 293T cells (Example II-51, Table II-29); type: cell-based; conditions: 293T cells pretreated 4 h, DiD lipid vesicles 2 h, n=3, untreated control 226.46 ± 1.26
SARS-CoV-2 pseudovirus [5] = system: SARS-CoV-2 pseudovirus; parameters: species or system SARS-CoV-2 pseudovirus B.1.526.2
TNF-α [6] = assay: Skin photoaging (UVB) in BALB/c nude mice, serum TNF-α (Example II-54, Table II-32); type: in vivo, mouse; conditions: UVB-irradiated BALB/c nude mice, 40 days
IL-1β [7] = assay: Skin photoaging (UVB) in BALB/c nude mice, serum IL-1β (Example II-54, Table II-33); type: in vivo, mouse; conditions: serum, UVB-irradiated BALB/c nude mice, 40 days
IL-6 [8] = assay: Skin photoaging (UVB) in BALB/c nude mice, serum IL-6 (Example II-54, Table II-34); type: in vivo, mouse; conditions: serum, UVB-irradiated BALB/c nude mice, 40 days
IL-1β [9] = assay: LPS inflammatory aging in C57BL/6 mice, serum IL-1β (Example II-55, Table II-35); type: in vivo, mouse; conditions: 1 mM, 200 μl/time, once a day, 30 days
IL-6 [10] = assay: LPS inflammatory aging in C57BL/6 mice, serum IL-6 (Example II-55, Table II-36); type: in vivo, mouse; conditions: 1 mM, 200 μl/time once a day for 30 days; serum, LPS C57BL/6 mice
TNF-α [11] = assay: LPS inflammatory aging in C57BL/6 mice, serum TNF-α (Example II-55, Table II-37); type: in vivo, mouse; conditions: 1 mM, 200 μl/time once a day for 30 days, LPS C57BL/6 mice

SMILES	inhibition rate (Staphylococcus aureus)	IC50 (Staphylococcus aureus) [µM]	liver, heart, kidney, bone/hepatobiliary function in blood versus control group [1]	physiological state, body weight, fur color, food consumption, mental state versus control group [1]	Inhibition rate (%) (Escherichia coli)	Inhibition rate (%) (Staphylococcus aureus)	Inhibition rate (%) [2] [%]	Inhibition rate (%) (Streptococcus pneumoniae)	Inhibition rate (%) (Klebsiella pneumoniae)	Inhibition rate (%) (Pseudomonas aeruginosa)	Sterilization rate (%) (H7N9 pseudovirus)	Sterilization rate (%) (H5N1 pseudovirus)	Sterilization rate (%) (HIV pseudovirus)	Sterilization rate (%) (SARS-CoV-2 pseudovirus [3])	IL-1β (IL-1β [9]) [pg/mL]	IL-6 (IL-6 [10]) [pg/mL]	TNF-α (TNF-α [11]) [pg/mL]	further results
CCCCCCCC/C=C\CCCCCCCC(=O)NCCCCC(N)C(=O)O (stereo not shown)	greater than 99%	9	no difference	not significantly different														effect of the complex on cells (VERO E6 cells; […] to 0.035 mM): less than 1%
CCCCCCCC/C=C\CCCCCCCC(=O)OC(C)C(N)C(=O)O (stereo not shown)	greater than 99%	9			99	99	99	99	99	99	99	99	99	99				
CCCCCCCC(=O)OCC(N)C(=O)O (stereo not shown)	greater than 99%	9			99	99	99	99	99	99	99	99	99	99				Inhibition rate (%) ([4]; 2 nM): 30.54 ± 0.54%; Inhibition rate (%) ([4]; 5 nM): 52.06 ± 5.23%; Inhibition rate (%) ([4]; 10 nM): 53.84 ± 1.57%; Inhibition rate (%) ([4]; 50 nM): 56.33 ± 1.56%; Inhibition rate (%) ([4]; 100 nM): 63.22 ± 2.55%; Inhibition rate (%) ([4]; 1 μM): -97.39 ± 7.23%; Inhibition rate (%) ([4]; 10 μM): -44.26 ± 0.03%; Inhibition rate (%) ([4]; 50 μM): 71.36 ± 0.28%; Inhibition rate (%) ([4]; 100 μM): 73.55 ± 0.44%; Fluorescence intensity (293T cells; 2 nM): 157.30 ± 0.13; Fluorescence intensity (293T cells; 5 nM): 108.56 ± 0.13; Fluorescence intensity (293T cells; 10 nM): 104.53 ± 0.13; Fluorescence intensity (293T cells; 50 nM): 98.90 ± 0.13; Fluorescence intensity (293T cells; 100 nM): 83.29 ± 5.66; Fluorescence intensity (293T cells; 1 uM): 447.01 ± 12.33; Fluorescence intensity (293T cells; 10 uM): 326.69 ± 4.66; Fluorescence intensity (293T cells; 50 uM): 64.86 ± 5.13; Fluorescence intensity (293T cells; 100 uM): 59.90 ± 4.13
CCCCCCCC(=O)OC(C)C(N)C(=O)O (stereo not shown)	greater than 99%	9			99	99	99	99	99	99	99	99	99	99				membrane structure of the virus (TEM) (SARS-CoV-2 pseudovirus [5]): broken
CCCCCCC(O)CC=CCCCCCCCC(=O)NCCCCC(N)C(=O)O (stereo not shown) [Lys-ricinoleic acid]															51	60	43	TNF-α (TNF-α [6]; 30 μM smeared): 60 pg/mL; TNF-α (TNF-α [6]; 50 μM smeared): 55 pg/mL; TNF-α (TNF-α [6]; 100 μM smeared): 57 pg/mL; IL-1β (IL-1β [7]; 30 μM smeared): 70 pg/mL; IL-1β (IL-1β [7]; 50 μM smeared): 65 pg/mL; IL-1β (IL-1β [7]; 100 μM smeared): 63 pg/mL; IL-6 (IL-6 [8]; 30 μM smeared): 34 pg/mL; IL-6 (IL-6 [8]; 50 μM smeared): 38 pg/mL; IL-6 (IL-6 [8]; 100 μM smeared): 33 pg/mL
CCCCCCCCCN(C)C[C@H](O)[C@@H](O)[C@H](O)[C@H](O)CO [N-nonyl-N-methylglucamine]			no difference	not significantly different							99	99	99	99				inhibition at 35 µM (Escherichia coli): 99%; inhibition at 35 µM (Staphylococcus aureus; Staphylococcus aureus): 99%; inhibition at 9 µM (Staphylococcus aureus; Staphylococcus aureus): > 99%; IC50 (Staphylococcus aureus; Staphylococcus aureus): 3 µM; inhibition at 35 µM (Streptococcus pneumoniae): 99%; inhibition at 35 µM (Klebsiella pneumoniae): 99%; inhibition at 35 µM (Pseudomonas aeruginosa): 99%; effect of the complex on cells (VERO E6 cells; 9 mM to 0.035 mM): less than 10%
CCCCCCCCN(C)C[C@H](O)[C@@H](O)[C@H](O)[C@H](O)CO [N-octyl-N-methylglucamine]			no difference	not significantly different							99	99	99	99				inhibition at 35 µM (Escherichia coli): 99%; inhibition at 35 µM (Staphylococcus aureus; Staphylococcus aureus): 99%; inhibition at 9 µM (Staphylococcus aureus; Staphylococcus aureus): > 99%; IC50 (Staphylococcus aureus; Staphylococcus aureus): 3 µM; inhibition at 35 µM (Streptococcus pneumoniae): 99%; inhibition at 35 µM (Klebsiella pneumoniae): 99%; inhibition at 35 µM (Pseudomonas aeruginosa): 99%; effect of the complex on cells (VERO E6 cells; 9 mM to 0.035 mM): less than 10%
CCCCCC=CCC=CCCCCCCCC(=O)OCC(N)C(=O)O (stereo not shown) [Ser-linoleic acid]															43	39	49	TNF-α (TNF-α [6]; 30 μM smeared): 48 pg/mL; TNF-α (TNF-α [6]; 50 μM smeared): 51 pg/mL; TNF-α (TNF-α [6]; 100 μM smeared): 45 pg/mL; IL-1β (IL-1β [7]; 30 μM smeared): 53 pg/mL; IL-1β (IL-1β [7]; 50 μM smeared): 54 pg/mL; IL-1β (IL-1β [7]; 100 μM smeared): 55 pg/mL; IL-6 (IL-6 [8]; 30 μM smeared): 28 pg/mL; IL-6 (IL-6 [8]; 50 μM smeared): 27 pg/mL; IL-6 (IL-6 [8]; 100 μM smeared): 29 pg/mL
CCC=CCC=CCC=CCCCCCCCC(=O)OC(C)C(N)C(=O)O (stereo not shown) [Thr-linolenic acid]															41	57	52	

From US20260166162A1, “CARBON CHAIN SUBSTANCE FOR REGULATING TRANSMEMBRANE TRANSPORT AND FLUIDITY OF CELL MEMBRANES, AND PREPARATION AND USE THEREOF” (priority 2022, published 2026)
